Measurements reported in the NIST ThermoML archive (doi:10.1016/j.fluid.2017.11.013).
Several values for one entry are separate records, joined by “and”; a condition that tells them apart may be missing. Identical values can stand only once.

Settings: Coaxial cylinder method

C=C [ethene]
Settings	thermal conductivity
301.6 K, 7230 kPa, Fluid (supercritical or subcritical phases)	0.06174 W/m/K
301.6 K, 7400 kPa, Fluid (supercritical or subcritical phases)	0.06342 W/m/K
301.6 K, 7430 kPa, Fluid (supercritical or subcritical phases)	0.06371 W/m/K
301.6 K, 7440 kPa, Fluid (supercritical or subcritical phases)	0.06376 W/m/K
301.6 K, 7460 kPa, Fluid (supercritical or subcritical phases)	0.06392 W/m/K
301.6 K, 7480 kPa, Fluid (supercritical or subcritical phases)	0.06395 W/m/K
301.6 K, 7570 kPa, Fluid (supercritical or subcritical phases)	0.06425 W/m/K
301.6 K, 7680 kPa, Fluid (supercritical or subcritical phases)	0.06462 W/m/K
301.6 K, 7720 kPa, Fluid (supercritical or subcritical phases)	0.06482 W/m/K
301.6 K, 7760 kPa, Fluid (supercritical or subcritical phases)	0.06461 W/m/K
301.6 K, 7800 kPa, Fluid (supercritical or subcritical phases)	0.06479 W/m/K
301.6 K, 7820 kPa, Fluid (supercritical or subcritical phases)	0.06483 W/m/K
301.6 K, 7980 kPa, Fluid (supercritical or subcritical phases)	0.06482 W/m/K
301.6 K, 8360 kPa, Fluid (supercritical or subcritical phases)	0.0649 W/m/K
301.6 K, 9100 kPa, Fluid (supercritical or subcritical phases)	0.0668 W/m/K
301.6 K, 10390 kPa, Fluid (supercritical or subcritical phases)	0.0716 W/m/K
301.6 K, 12800 kPa, Fluid (supercritical or subcritical phases)	0.07701 W/m/K
301.6 K, 14950 kPa, Fluid (supercritical or subcritical phases)	0.08151 W/m/K
301.6 K, 18120 kPa, Fluid (supercritical or subcritical phases)	0.08743 W/m/K
301.6 K, 20700 kPa, Fluid (supercritical or subcritical phases)	0.09068 W/m/K
301.6 K, 20800 kPa, Fluid (supercritical or subcritical phases)	0.09075 W/m/K
301.6 K, 25600 kPa, Fluid (supercritical or subcritical phases)	0.09706 W/m/K
301.6 K, 31800 kPa, Fluid (supercritical or subcritical phases)	0.1039 W/m/K
301.6 K, 40300 kPa, Fluid (supercritical or subcritical phases)	0.1138 W/m/K
301.6 K, 45200 kPa, Fluid (supercritical or subcritical phases)	0.1185 W/m/K
301.6 K, 50400 kPa, Fluid (supercritical or subcritical phases)	0.1236 W/m/K
301.6 K, 55500 kPa, Fluid (supercritical or subcritical phases)	0.1283 W/m/K
301.6 K, 59300 kPa, Fluid (supercritical or subcritical phases)	0.132 W/m/K
301.6 K, 61000 kPa, Fluid (supercritical or subcritical phases)	0.1337 W/m/K and 0.1336 W/m/K
301.6 K, 62000 kPa, Fluid (supercritical or subcritical phases)	0.1342 W/m/K
301.6 K, 65000 kPa, Fluid (supercritical or subcritical phases)	0.1366 W/m/K
301.6 K, 65300 kPa, Fluid (supercritical or subcritical phases)	0.1372 W/m/K
301.6 K, 65700 kPa, Fluid (supercritical or subcritical phases)	0.1378 W/m/K
301.6 K, 66000 kPa, Fluid (supercritical or subcritical phases)	0.1378 W/m/K
301.6 K, 70000 kPa, Fluid (supercritical or subcritical phases)	0.1414 W/m/K
302.21 K, 101 kPa, Gas	0.02112 W/m/K
303.1 K, 101 kPa, Gas	0.0207 W/m/K
425 K, 101 kPa, Gas	0.0381 W/m/K
425.46 K, 500 kPa, Fluid (supercritical or subcritical phases)	0.03821 W/m/K
425.46 K, 1000 kPa, Fluid (supercritical or subcritical phases)	0.03832 W/m/K
425.46 K, 2500 kPa, Fluid (supercritical or subcritical phases)	0.03937 W/m/K
425.46 K, 5000 kPa, Fluid (supercritical or subcritical phases)	0.04226 W/m/K
425.46 K, 7300 kPa, Fluid (supercritical or subcritical phases)	0.04435 W/m/K
425.46 K, 10000 kPa, Fluid (supercritical or subcritical phases)	0.04845 W/m/K
425.46 K, 12200 kPa, Fluid (supercritical or subcritical phases)	0.0528 W/m/K
425.46 K, 14600 kPa, Fluid (supercritical or subcritical phases)	0.05769 W/m/K and 0.05771 W/m/K
425.46 K, 14800 kPa, Fluid (supercritical or subcritical phases)	0.05814 W/m/K
425.46 K, 20000 kPa, Fluid (supercritical or subcritical phases)	0.06783 W/m/K
425.46 K, 24900 kPa, Fluid (supercritical or subcritical phases)	0.07364 W/m/K
425.46 K, 30000 kPa, Fluid (supercritical or subcritical phases)	0.07726 W/m/K
425.46 K, 40600 kPa, Fluid (supercritical or subcritical phases)	0.08392 W/m/K
425.46 K, 50500 kPa, Fluid (supercritical or subcritical phases)	0.0908 W/m/K
425.46 K, 60700 kPa, Fluid (supercritical or subcritical phases)	0.09875 W/m/K
425.46 K, 70300 kPa, Fluid (supercritical or subcritical phases)	0.1051 W/m/K
425.46 K, 71800 kPa, Fluid (supercritical or subcritical phases)	0.1068 W/m/K
425.46 K, 73700 kPa, Fluid (supercritical or subcritical phases)	0.109 W/m/K
425.46 K, 75000 kPa, Fluid (supercritical or subcritical phases)	0.1098 W/m/K
425.46 K, 79000 kPa, Fluid (supercritical or subcritical phases)	0.1119 W/m/K
425.46 K, 81900 kPa, Fluid (supercritical or subcritical phases)	0.1144 W/m/K
425.46 K, 89500 kPa, Fluid (supercritical or subcritical phases)	0.1184 W/m/K
425.46 K, 93500 kPa, Fluid (supercritical or subcritical phases)	0.1214 W/m/K
425.46 K, 97000 kPa, Fluid (supercritical or subcritical phases)	0.1232 W/m/K
425.46 K, 100000 kPa, Fluid (supercritical or subcritical phases)	0.1251 W/m/K
425.62 K, 101 kPa, Gas	0.03809 W/m/K
